Source: patent US20080260845A1, “MULTIPLE ACTIVE DRUG RESIN CONJUGATE” (priority 2003, published 2008)

Test: In vitro drug release (dissolution) of codeine/chlorpheniramine resin conjugate suspension
Assay type: physicochemical
Experimental: The dissolution testing shown in Tables I and II was conducted using a release medium of hydrochloric acid, sodium chloride, and sodium dodecylsulfate. […] The dissolution profile for chlorpheniramine, shown in Table II, also is even and predictable, for example, at the initial testing, 42 percent dissolution of chlorpheniramine at 1 hour, 65 percent at 3 hours, 78 percent at 6 hours, and 88 percent at 12 hours.
Further, Tables I and II show even, predictable drug release data at one and one half months, 3 months, 6 months, and 9 months, with only very minor variations. […] Thus, with aging of the product, the release profile is consistent, allowing use of the present invention in compliance with various stability requirements for pharmaceutical products.

[1] = 1-Hour, Initial, HCl/NaCl/sodium dodecylsulfate medium

COc1ccc2c3c1O[C@H]1[C@@H](O)C=C[C@H]4[C@@H](C2)N(C)CC[C@@]341 [Codeine, codeine]
Codeine Release (1-Hour, 1.5M, 4O C. aging): 55%
Codeine Release (1-Hour, 3M, 4O C. aging): 56%
Codeine Release (1-Hour, 3M, 25 C. aging): 54%
Codeine Release (1-Hour, 6M, 4O C. aging): 54%
Codeine Release (1-Hour, 6M, 25 C. aging): 54%
Codeine Release (1-Hour, 9M, 25 C. aging): 54%
Codeine Release [1]: 1-Hour 54%
Codeine Release (1-Hour, Initial, HCl/NaCl/sodium dodecylsulfate medium, listed as codeine): 54%
Codeine Release (3-Hour, 1.5M, 4O C. aging): 77%
Codeine Release (3-Hour, 3M, 4O C. aging): 77%
Codeine Release (3-Hour, 3M, 25 C. aging): 75%
Codeine Release (3-Hour, 6M, 4O C. aging): 77%
Codeine Release (3-Hour, 6M, 25 C. aging): 75%
Codeine Release (3-Hour, 9M, 25 C. aging): 75%
Codeine Release (3-Hour, Initial): 3-Hour 75%
Codeine Release (3-Hour, Initial, listed as codeine): 75%
Codeine Release (6-Hour, 1.5M, 4O C. aging): 88%
Codeine Release (6-Hour, 3M, 4O C. aging): 88%
Codeine Release (6-Hour, 3M, 25 C. aging): 86%
Codeine Release (6-Hour, 6M, 4O C. aging): 87%
Codeine Release (6-Hour, 6M, 25 C. aging): 85%
Codeine Release (6-Hour, 9M, 25 C. aging): 86%
Codeine Release (6-Hour, Initial): 6-Hour 86%
Codeine Release (6-Hour, Initial, listed as codeine): 86%
Codeine Release (12-Hour, 1.5M, 4O C. aging): 95%
Codeine Release (12-Hour, 3M, 4O C. aging): 95%
Codeine Release (12-Hour, 3M, 25 C. aging): 93%
Codeine Release (12-Hour, 6M, 4O C. aging): 94%
Codeine Release (12-Hour, 6M, 25 C. aging): 93%
Codeine Release (12-Hour, 9M, 25 C. aging): 94%
Codeine Release (12-Hour, Initial): 12-Hour 93%
Codeine Release (12-Hour, Initial, listed as codeine): 93%

CN(C)CCC(c1ccc(Cl)cc1)c1ccccn1 (stereo not shown) [Chlorpheniramine, chlorpheniramine]
Chlorpheniramine Release (1-Hour, 1.5M, 4O C. aging): 41%
Chlorpheniramine Release (1-Hour, 3M, 4O C. aging): 43%
Chlorpheniramine Release (1-Hour, 3M, 25 C. aging): 43%
Chlorpheniramine Release (1-Hour, 6M, 4O C. aging): 39%
Chlorpheniramine Release (1-Hour, 6M, 25 C. aging): 41%
Chlorpheniramine Release (1-Hour, 9M, 25 C. aging): 42%
Chlorpheniramine Release [1]: 1-Hour 42%
Chlorpheniramine Release (1-Hour, Initial, HCl/NaCl/sodium dodecylsulfate medium, listed as chlorpheniramine): 42%
Chlorpheniramine Release (3-Hour, 1.5M, 4O C. aging): 63%
Chlorpheniramine Release (3-Hour, 3M, 4O C. aging): 65%
Chlorpheniramine Release (3-Hour, 3M, 25 C. aging): 64%
Chlorpheniramine Release (3-Hour, 6M, 4O C. aging): 62%
Chlorpheniramine Release (3-Hour, 6M, 25 C. aging): 63%
Chlorpheniramine Release (3-Hour, 9M, 25 C. aging): 63%
Chlorpheniramine Release (3-Hour, Initial): 3-Hour 65%
Chlorpheniramine Release (3-Hour, Initial, listed as chlorpheniramine): 65%
Chlorpheniramine Release (6-Hour, 1.5M, 4O C. aging): 77%
Chlorpheniramine Release (6-Hour, 3M, 4O C. aging): 78%
Chlorpheniramine Release (6-Hour, 3M, 25 C. aging): 77%
Chlorpheniramine Release (6-Hour, 6M, 4O C. aging): 76%
Chlorpheniramine Release (6-Hour, 6M, 25 C. aging): 76%
Chlorpheniramine Release (6-Hour, 9M, 25 C. aging): 77%
Chlorpheniramine Release (6-Hour, Initial): 6-Hour 78%
Chlorpheniramine Release (6-Hour, Initial, listed as chlorpheniramine): 78%
Chlorpheniramine Release (12-Hour, 1.5M, 4O C. aging): 87%
Chlorpheniramine Release (12-Hour, 3M, 4O C. aging): 90%
Chlorpheniramine Release (12-Hour, 3M, 25 C. aging): 88%
Chlorpheniramine Release (12-Hour, 6M, 4O C. aging): 87%
Chlorpheniramine Release (12-Hour, 6M, 25 C. aging): 87%
Chlorpheniramine Release (12-Hour, 9M, 25 C. aging): 88%
Chlorpheniramine Release (12-Hour, Initial): 12-Hour 88%
Chlorpheniramine Release (12-Hour, Initial, listed as chlorpheniramine): 88%
